These are literature values, as cited in EP3360549A1, “SMALL MOLECULE THERAPEUTICS FOR TREATING METACHROMATIC LEUKODYSTROPHY” (Rheinische Friedrich-Wilhelms-Universität Bonn, priority 2017, dated 2018).

This data set has as its system sulfatides. The conditions noted are these: mice, brain; reduction, along with cerebrosides and sphingomyelin.

Turning to `CC(=O)CC(c1ccccc1)c1c(O)c2ccccc2oc1=O` (stereo not shown) [Warfarin], the “reduce the levels of sulfatides” value is 33%.
